Our source for the MIC values is ChEMBL document CHEMBL1123009, “Synthesis and antimicrobial evaluation of bicyclomycin analogues” (1985).

In brackets after ≈: the same amount, converted by molar mass. Activity calls are given as the source filed them. The calls are words filed in the database; no cut-off is given here. Bounds are passed on as bounds.

Assay [1] deals with Staphylococcus aureus. Put plainly: Compound was evaluated for its antibiotic activity against gram-negative and gram-positive bacterial strains; NA = not active. It counts as functional, organism-based.
Assay [2] relates to Staphylococcus aureus. The assay is described as follows: Minimum inhibitory concentration against gram-negative and gram-positive bacterial strains; Not active. The format is functional, organism-based.
The test system of assay [3] is Bacillus. Put plainly: Minimum inhibitory concentration against Bacillus sp. E. It counts as functional.
In the next assay the test system is Enterococcus faecium. Put plainly: Minimum inhibitory concentration against Streptococcus faecium ATCC 8043. The format is functional.
The next assay has as its system Klebsiella pneumoniae. The assay is described as follows: Minimum inhibitory concentration against Klebsiella pneumoniae 369. It counts as functional.
Another assay has as its system Paecilomyces variotii. Put plainly: Minimum inhibitory concentration against Paecilomyces varioti M16. It counts as functional.
The next assay concerns Serratia. The assay is described as follows: Minimum inhibitory concentration against Serratia sp.101. It counts as functional.
For the next assay, the system named is Mycolicibacterium phlei. The assay is described as follows: Minimum inhibitory concentration against Mycobacterium phlei 78. It counts as functional.
The next assay relates to Penicillium digitatum. The assay is described as follows: Minimum inhibitory concentration against Penicillium digitatum 0184. The format is functional.
For the next assay, the system named is Saccharomyces cerevisiae. The assay is described as follows: Minimum inhibitory concentration against Saccharomyces cerevisiae 90. The format is functional.
The subject of another assay is Escherichia coli. The assay is described as follows: Minimum inhibitory concentration against Escherichia coli 94. It counts as functional.
A further assay concerns Serratia marcescens. Put plainly: Minimum inhibitory concentration against Serratia marcescens SM. The format is functional.
The subject of a further assay is Candida albicans. Put plainly: Minimum inhibitory concentration against yeast Candida albicans 155. The format is functional.
The test system of the next assay is Streptomyces sp. The assay is described as follows: Minimum inhibitory concentration against Gram positive filament Streptomyces cellulose 097. The format is functional.
In assay [4] the test system is Acinetobacter calcoaceticus. Put plainly: Minimum inhibitory concentration against Acinetobacter calcoaceticus PCl3. The format is functional.
Assay [5] has as its system Staphylococcus aureus. Put plainly: Minimum inhibitory concentration against Staphylococcus aureus 82. The format is functional.
A further assay relates to Pseudomonas aeruginosa. Put plainly: Minimum inhibitory concentration against Pseudomonas aeruginosa 56. The format is functional.
Another assay relates to Priestia megaterium. Put plainly: Minimum inhibitory concentration against Bacillus megaterium 164. It counts as functional.
In the next assay the test system is Micrococcus luteus. Put plainly: Minimum inhibitory concentration against Micrococcus luteus PCI. It counts as functional.
Assay [6] has as its system Bacillus. The assay is described as follows: Minimum inhibitory concentration against Bacillus sp. TA. It counts as functional.
The subject of a further assay is Proteus vulgaris. Put plainly: Minimum inhibitory concentration against Proteus vulgaris 101N. The format is functional.
The subject of a further assay is Bacillus subtilis. The assay is described as follows: Minimum inhibitory concentration against Bacillus subtilis 558. It counts as functional.

`CSC12OCCC[C@@](C)(C(=O)N1C)N(C)C2=O`: the MIC (usually the lowest concentration found to suppress growth) with Staphylococcus aureus [1] was “inactive”.

In the case of `COc1ccc(N2C(=O)[C@@H]3CCCOC2C(=O)N3c2ccc(OC)cc2)cc1`, the MIC entry with Staphylococcus aureus [2] was “inactive”.

On to `CN1C(=O)[C@]2(C(O)c3ccccc3)CCCOC1C(=O)N2C` (some centres not stated), for which, in the assay on Staphylococcus aureus [2], the MIC entry is “inactive”.

As to `C=C1CCOC2C(=O)N(Cc3ccccc3)[C@@H]1C(=O)N2Cc1ccccc1`, the MIC entry in the assay with Staphylococcus aureus [2] is “inactive”.

`C=C1CCOC2NC(=O)[C@H]1NC2=O`: in the assay on Staphylococcus aureus [2], the MIC result is “inactive”.

As for `C=C1COC2C(=O)N(Cc3ccccc3)[C@@H]1C(=O)N2Cc1ccccc1`, the MIC entry in the assay with Staphylococcus aureus [2] was “inactive”.

As for `C[C@](O)(CO)[C@H](O)C12NC(=O)[C@H](CCCO1)NC2=O`, the MIC result with Staphylococcus aureus [2] was “inactive”.

As for `C=C1CCOC2NC(=O)[C@@]1(O)NC2=O`, the MIC result in the assay with Staphylococcus aureus [1] is “inactive”.

Turning to `COc1ccc(CN2C(=O)[C@@H]3CCCOC2C(=O)N3Cc2ccc(OC)cc2)cc1`, in the assay on Staphylococcus aureus [2], the MIC result is “inactive”.

With `C=C1CCOC2([C@@H](O)[C@@](C)(O)CO)NC(=O)[C@@]1(O)NC2=O`, in the assay with Staphylococcus aureus [2], the MIC result was “inactive”.

For `C[C@](O)(CO)[C@H](O)C12NC(=O)[C@](O)(CCCO1)NC2=O`, in the assay on Staphylococcus aureus [2], the MIC result is “inactive”.

In the case of `O=C1C2OCCC[C@@](O)(C(=O)N2Cc2ccccc2)N1Cc1ccccc1`, the MIC result with Staphylococcus aureus [2] was “inactive”.

As to `CN1C(=O)[C@@H]2CCCOC1C(=O)N2C`, in the assay with Staphylococcus aureus [2], the MIC entry is “inactive”.

Consider `C=C1CCO[C@]2([C@@H](O)[C@@](C)(O)CO)NC(=O)[C@@]1(O)NC2=O` [BICOZAMYCIN], for which the MIC with Bacillus [3] was more than 1000 µg/mL; against Enterococcus faecium, more than 1000 µg/mL; against Klebsiella pneumoniae it was 250 µg/mL (≈ 827 µM); in the assay on Paecilomyces variotii, more than 1000 µg/mL; with Serratia it was more than 1000 µg/mL; with Mycolicibacterium phlei, 1000 µg/mL (≈ 3310 µM). Further, the MIC in the assay with Penicillium digitatum is more than 1000 µg/mL; against Saccharomyces cerevisiae it was more than 1000 µg/mL; against Escherichia coli it was 250 µg/mL (≈ 827 µM); against Serratia marcescens it was more than 1000 µg/mL; in the assay with Candida albicans, more than 1000 µg/mL; with Streptomyces sp., 500 µg/mL (≈ 1650 µM). Moreover, the MIC in [4] is 1000 µg/mL (≈ 3310 µM); with Staphylococcus aureus [5] it was more than 1000 µg/mL; with Pseudomonas aeruginosa it was more than 1000 µg/mL; in the assay with Priestia megaterium, more than 1000 µg/mL; against Micrococcus luteus, more than 1000 µg/mL; with Bacillus [6] it was more than 1000 µg/mL. Besides, the MIC against Proteus vulgaris and against Bacillus subtilis was more than 1000 µg/mL in each case.

In the case of `O=C1N[C@@]2(O)CCCOC1NC2=O`, the MIC entry with Staphylococcus aureus [2] is “inactive”.

`CN1C(=O)[C@@H]2CCOC1C(=O)N2C`: the MIC entry in the assay on Staphylococcus aureus [1] was “inactive”.

On to `CN1C(=O)[C@]2(C(=O)c3ccccc3)CCOC1C(=O)N2C`, for which the MIC entry in the assay on Staphylococcus aureus [1] is “inactive”.

Consider `C=C1CCOC2C(=O)N(Cc3ccccc3)[C@]1(O)C(=O)N2Cc1ccccc1`, for which the MIC with Bacillus [3], against Enterococcus faecium, in the assay with Klebsiella pneumoniae, against Paecilomyces variotii, in the assay on Serratia and with Mycolicibacterium phlei was more than 1000 µg/mL each time. The MIC against Penicillium digitatum is more than 1000 µg/mL; against Saccharomyces cerevisiae, more than 1000 µg/mL; in the assay on Escherichia coli, more than 1000 µg/mL; in the assay with Serratia marcescens, more than 1000 µg/mL; with Candida albicans, more than 1000 µg/mL; against Streptomyces sp., 500 µg/mL (≈ 1320 µM). For the same compound, the MIC was more than 1000 µg/mL in assay [4]; more than 1000 µg/mL against Staphylococcus aureus [5]; more than 1000 µg/mL against Pseudomonas aeruginosa; 500 µg/mL (≈ 1320 µM) in the assay with Priestia megaterium; 500 µg/mL (≈ 1320 µM) in the assay on Micrococcus luteus; 250 µg/mL (≈ 661 µM) with Bacillus [6]. For the same compound, the MIC in the assay with Proteus vulgaris was more than 1000 µg/mL; in the assay on Bacillus subtilis it was 250 µg/mL (≈ 661 µM).

`O=C1[C@@H]2CCCOC(C(=O)N2Cc2ccccc2)N1Cc1ccccc1`: the MIC result with Staphylococcus aureus [2] is “inactive”.

For `C=CC1COC2C(=O)N(Cc3ccccc3)[C@@H]1C(=O)N2Cc1ccccc1` (some centres not stated), the MIC result with Staphylococcus aureus [2] was “inactive”.

`C=CC1COC2NC(=O)[C@H]1NC2=O` (some centres not stated): the MIC entry with Staphylococcus aureus [1] is “inactive”.

For the compound `O=C1[C@@H]2[C@H](CO)COC(C(=O)N2Cc2ccccc2)N1Cc1ccccc1`, the MIC result in the assay with Staphylococcus aureus [2] was “inactive”.

Consider `O=C1N[C@H]2CCCOC1NC2=O`, for which the MIC result in the assay with Staphylococcus aureus [2] is “inactive”.

Regarding `CS[C@@]12CCCOC(C(=O)N1C)N(C)C2=O`, the MIC entry in the assay on Staphylococcus aureus [2] was “inactive”.
